Assay results as given in US20150307508A1, “Application of an alkaloid derived from a Chinese herbal for treatment of cancer by inhibiting cholesterol synthesis and fatty acid oxidation” (Macau University of Science and Technology, priority 2014, published 2015).
Where “and” joins values, the source holds several entries; their conditions need not be identical. Equal entries are not always repeated.

What was measured:
H1650 = conditions: cited from earlier work
H1975 = conditions: cited from earlier work
[1] = test system: BEAS-2B (Normal lung epithelial cell); conditions: cited from earlier work
H1819 [2] = conditions: cited from earlier work
SREBP1 = assay: Real-time PCR analysis of SREBP1 RNA expression; format: cell-based, human; conditions: 24 hrs
Description: (§1) The RNA expression levels of CPT1C and SREBP1 in both H1975 and H1650 cell lines after being treated with 10 μM BBR for 24 hrs were analyzed by Real-time PCR analysis and Western blot analysis, as shown in FIGS. 2A-2D.

H1650 cells [3] = assay: Thin-layer chromatography of total cellular lipid, H1650; format: cell-based, human; conditions: H1650, 5 μM, 72 hours
Description: (§2) Cells were scraped from culture dish and resuspended in 2 ml PBS containing 1× protease inhibitor and 1 mM PMSF. Total cellular lipid was extracted by adding 4 ml chloroform/methanol (2:1). The mixture was vortexed for 1 min and centrifuged at 1500 g×5 min. The organic phase was collected and another 2.5 ml choloroform was added to the residual aqueous phase; the mixture was vortexted and centrifuged at 1500 g×5 min again. The organic phase was collected together with the previous extraction. Thin layer chromatography (TLC) was performed by spotting of the cellular total lipid extract to a 5×10 cm silica gel aluminum sheet and developed with hexane/diethyl ether/acetic acid (80:20:2). Lipids were visualized with iodine vapor and imaged using a desktop scanner
(§3) The overall lipid levels in H1975 and H1650 treated by Berberine were studied in this example. H1975 and H1650 cells were treated with 5 μM BBR for 72 hours and then total cellular lipid was extracted.

CCND1 = assay: Western blot analysis of CCND1 protein level in H1975 cells; format: cell-based, human; conditions: 72 hrs
HCC827 = assay: MTT cytotoxicity assay, HCC827; format: cell-based; conditions: Homo sapiens, HCC827, 72 hrs, read-out: IC50 value after 72 hrs of treatment
From the text: (§4) This example described the BBR-induced cytotoxicity effect in six NSCLC cell lines utilizing MTT cytotoxicity assay. A549 is wild type EGFR and BEAS-2B is normal lung epithelial cells.

CCNB1 = assay: Western blot analysis of CCNB1 protein level in H1975 cells; format: cell-based, human; conditions: 72 hrs
H1975 cells [4] = assay: Thin-layer chromatography of total cellular lipid, H1975; format: cell-based, human; conditions: H1975, 5 μM, 72 hours
Description: as §2, §3

H1650 cells [5] = assay: Cell cycle analysis of H1650; format: cell-based, human; conditions: 72 hrs
From the text: (§5) The anticancer effect of berberine against two most BBR sensitive cell lines are further studied in Example 8, namely H1975 (EGFR^L858R+T790M) and H1650 (EGFR^Exon19 deletion).

H1819 [6] = assay: MTT cytotoxicity assay, H1819; format: cell-based; conditions: Homo sapiens, NCI-H1819, H1819, 72 hrs, read-out: IC50 value after 72 hrs of treatment
From the text: as §4

H1975 cells [7] = assay: Cell cycle analysis of H1975; format: cell-based, human; conditions: 72 hrs
From the text: as §5

[8] = test system: H1650 (EGFR^Exon19 deletion); assay: MTT cytotoxicity assay, H1650; format: cell-based; conditions: Homo sapiens, NCI-H1650, H1650, 72 hrs, read-out: IC50 value after 72 hrs of treatment
From the text: as §4

CPT1C = assay: Real-time PCR analysis of CPT1C RNA expression; format: cell-based, human; conditions: 24 hrs
Description: as §1

A549 (EGFR^Wild type) = assay: MTT cytotoxicity assay, A549; format: cell-based; conditions: Homo sapiens, A549, 72 hrs, read-out: IC50 value after 72 hrs of treatment
From the text: as §4

H1975 (EGFR^L858R+T790M) = assay: MTT cytotoxicity assay, H1975; format: cell-based; conditions: Homo sapiens, NCI-H1975, H1975, 72 hrs, read-out: IC50 value after 72 hrs of treatment
From the text: as §4

[9] = test system: BEAS-2B (Normal lung epithelial cell); assay: MTT cytotoxicity assay, BEAS-2B; format: cell-based; conditions: Homo sapiens, 72 hrs, read-out: IC50 value after 72 hrs of treatment
From the text: as §4

For `COc1cc2ncnc(Nc3ccc(F)c(Cl)c3)c2cc1OCCCN1CCOCC1` [Gefitinib], the “Gefitinib Sensitivity” value (H1650) is given as “Resistant”, the “Gefitinib Sensitivity” value (H1975) is given as “Resistant” and the “Gefitinib Sensitivity” value [1] is given as “Resistant”. The “Gefitinib Sensitivity” value (H1819 [2]) was “Moderately sensitive”.
In the case of `COc1ccc2cc3[n+](cc2c1OC)CCc1cc2c(cc1-3)OCO2` [BBR, berberine], the “decrease of RNA expression level of SREBP1 vs vehicle control” value (SREBP1; H1650, 10 μM) is reported as 2.64 times, the “decrease of RNA expression level of SREBP1 vs vehicle control” value (SREBP1; H1975, 10 μM) is reported as 9.23 times and the “overall lipid levels (TLC)” value (H1650 cells [3]) is reported as “lower the overall lipid levels”. For the same compound, the “protein level of CCND1 (Western blot)” value (CCND1) was “down-regulated”, the IC50 (HCC827) was 8.9 ± 4.4 µM and the “protein level of CCNB1 (Western blot)” value (CCNB1) was “down-regulated”. For the same compound, the “overall lipid levels (TLC)” value (H1975 cells [4]) was “lower the overall lipid levels”, the “decrease of percentage of G0/G1 phase vs control” value (H1650 cells [5]; H1650, 5 μM) was 21.1% and the “decrease of percentage of G0/G1 phase vs control” value (H1650 cells [5]; H1650, 10 μM) was 18.3%. The IC50 (H1819 [6]) was 6.51 ± 2.09 µM, the “decrease of percentage of G0/G1 phase vs control” value (H1975 cells [7]; H1975, 5 μM) was 11.5% and the “increase of G2 phase vs control” value (H1975 cells [7]; H1975, 5 μM) was 11%. For the same compound, the “decrease of percentage of G0/G1 phase vs control” value (H1975 cells [7]; H1975, 10 μM) was 14%, the “increase of G2 phase vs control” value (H1975 cells [7]; H1975, 10 μM) was 15.73% and 15.7% and the IC50 [8] was 6 ± 2.78 µM. The “increase of RNA expression level of CPT1C vs vehicle control” value (CPT1C; H1650, 10 μM) was 5.92 times, the “increase of RNA expression level of CPT1C vs vehicle control” value (CPT1C; H1975, 10 μM) was 2.005 times and the IC50 (A549 (EGFR^Wild type)) was 11.2 ± 3.98 µM. The IC50 (H1975 (EGFR^L858R+T790M)) was 2.92 ± 0.49 µM and the IC50 [9] was 24.7 ± 12.4 µM.
